The target of data set [1] is human GLP1R (Homo sapiens, UniProt P43220). The data set is described as follows: CRE-luc luciferase assay in GLP1R and CRE-luc cotransfected HEK293T cells. The class given is cell-based.
The target of data set [2] is DPP-IV activity of fetal bovine serum (Bos taurus, UniProt P81425). The data set is described as follows: Stability in 100% FBS, residual activity by GLP1R/CRE-luc luciferase assay. The class given is in vitro ADME. The settings on record: FBS incubation, 37℃.

No end group written: not given here.

Chain of human GLP1R (P43220 24-463): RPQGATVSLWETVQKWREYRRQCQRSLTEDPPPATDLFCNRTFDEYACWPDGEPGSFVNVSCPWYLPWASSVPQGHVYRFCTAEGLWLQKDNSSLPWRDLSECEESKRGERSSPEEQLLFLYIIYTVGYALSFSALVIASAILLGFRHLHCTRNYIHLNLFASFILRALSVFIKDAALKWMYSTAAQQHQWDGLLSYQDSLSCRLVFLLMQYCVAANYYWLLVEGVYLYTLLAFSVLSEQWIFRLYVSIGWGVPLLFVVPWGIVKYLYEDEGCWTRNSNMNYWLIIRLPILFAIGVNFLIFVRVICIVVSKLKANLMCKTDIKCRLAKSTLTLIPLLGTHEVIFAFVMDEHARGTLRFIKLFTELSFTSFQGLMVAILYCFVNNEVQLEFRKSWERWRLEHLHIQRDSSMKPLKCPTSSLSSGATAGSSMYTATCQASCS
Chain of DPP-IV activity of fetal bovine serum (P81425 38-765 limits assumed): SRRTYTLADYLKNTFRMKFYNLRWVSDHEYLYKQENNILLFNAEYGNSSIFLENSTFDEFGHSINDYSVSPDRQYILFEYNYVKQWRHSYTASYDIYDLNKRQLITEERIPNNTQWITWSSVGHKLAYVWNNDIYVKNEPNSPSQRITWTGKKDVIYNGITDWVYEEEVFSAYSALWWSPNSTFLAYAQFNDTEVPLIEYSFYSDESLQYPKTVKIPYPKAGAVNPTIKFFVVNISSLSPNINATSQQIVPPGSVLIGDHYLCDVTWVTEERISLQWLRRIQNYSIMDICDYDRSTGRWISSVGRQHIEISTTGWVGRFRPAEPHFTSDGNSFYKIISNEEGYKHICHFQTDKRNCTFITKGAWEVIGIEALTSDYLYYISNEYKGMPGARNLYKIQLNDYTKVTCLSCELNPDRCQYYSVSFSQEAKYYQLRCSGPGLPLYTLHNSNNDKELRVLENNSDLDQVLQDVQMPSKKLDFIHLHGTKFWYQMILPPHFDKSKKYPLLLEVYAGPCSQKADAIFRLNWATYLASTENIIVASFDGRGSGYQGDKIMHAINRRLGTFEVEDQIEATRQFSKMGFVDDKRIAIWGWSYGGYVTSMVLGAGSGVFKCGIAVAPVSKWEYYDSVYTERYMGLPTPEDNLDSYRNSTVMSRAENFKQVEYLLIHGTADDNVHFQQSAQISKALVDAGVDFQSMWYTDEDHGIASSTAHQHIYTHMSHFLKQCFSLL

In data set [1], “HAEGTFTNDMTNYLEEKAAKEFVGWLIKGR-NH2 [xGLP, Xenopus GLP-1, reference compound]” showed an EC50 of 0.832 nM.

On to “HSEGTFTNDMTNYLEEKAAKEFVGWLIKGGPSSGAPPPS [xGLP-E4]”, for which the EC50 in data set [1] was 0.155 nM. Moreover, the “stability in serum (overall comparison, words)” value in data set [2] is “more stable in serum than wild-type human and xGLP”.

One may read the EC50 as the concentration that produces a half-maximal response.
